Experimental data published in article PMC8149581 (Chemistry of Heterocyclic Compounds, 2021).
Values after ≈ are worked out from the molar mass of the structure shown.

The compounds below were run on influenza A/Puerto Rico/8/34 (H1N1) virus.
Type: cell-based

Nc1c(Br)cc([N+](=O)[O-])cc1-c1nnn(C23CC4CC(CC(C4)C2)C3)n1 [Compound 3h, 2-[2-(Adamantan-1-yl)-2 H -tetrazol-5-yl]-6-bromo-4-nitroaniline] and Nc1cc(-c2nnn(C34CC5CC(CC(C5)C3)C4)n2)ccc1O [Compound 3i, 4-[2-(Adamantan-1-yl)-2 H -tetrazol-5-yl]-2-aminophenol] are the same in “IC50 (antiviral activity)” value: 15 ± 3 µg/mL (≈ 35.8 µM) for the first, 15 ± 2 µg/mL (≈ 48.2 µM) for the second.

CC(N)C12CC3CC(CC(C3)C1)C2 (stereo not drawn) [Rimantadine, reference compound] was tested, and the “IC50 (antiviral activity)” value was 12 ± 2 µg/mL (≈ 66.9 µM).
